No end group written: not given here.
Test system: calvaria from 4-days-old mice
Test: Fetal mouse calvarial assay (mouse calvarial organ culture, histomorphometrical analysis of new bone area)
Format: cell-based
Conditions: assay terminated at day 7, FGF-1 as positive control
Description: FGF-1 was purchased from Peprotech Inc. (Rocky Hill, N.J.). RGD-1, 2, 3, 4, 5 and 6 (referred to here as D-00001, D-00002, D-00003, D-00004, D-00005 and D-00006) were provided by Dr. Nomizu (Hokkaido University, Japan).
Pregnant ICR mice were purchased from SLC Japan Co. Ltd. (Shizuoka, Japan).
Mouse calvarial organ culture was performed as described in Mundy G et al. Science 286: 1946-1949, 1999 and Traianedes K et al. Endocrinology 139: 3178-3184, 1998. The calvaria from 4-days-old mice were excised and cut in half along the sagittal suture. Each half of the calvaria was placed on a stainless steel grid in a 12-well tissue culture dish (Asahi Glass Techno Corp., Funabashi, Japan). Each well contained 1.5 ml of BGj medium (Sigma, St. Louis, Mo.) supplemented with 0.1% bovine serum albumin (Sigma) and each compound. FGF-1 was used as a positive control as described by Mundy et al. The medium was changed at day 1 and 4, and the assay was terminated at day 7.
Calvaria was fixed with 10% neutral-buffered formalin, decalcified with 4.13% EDTA and embedded in paraffin. […] sections were made and stained with hematoxylin and eosin. New bone area was measured using Image-Pro Plus (Media Cybernetics, Silver Spring, Md.).
The six peptides of Example 1 were tested for their ability to enhance bone growth with the tests being carried out as described above in Example 2.

Row | Sequence | ability to enhance bone growth (new bone area)
1 | ERGDNDISPFSGDGQ (ERGDNDISPFSGDGQ-NH2) [D-00004] | best results
2 | TDLQERGDNDISPFSGDGQPFKD [D-00006] | best results

Reference: patent US20090163413A1, “DENTAL PRODUCTS COMPRISING BONE GROWTH ENHANCING PEPTIDE” (Acologix., Inc., priority 2000, published 2009)
